The record followed here is ChEMBL document CHEMBL1201862, “PubChem BioAssay data set” (2004).

The nature of test [1]: viability of PTEN-deleted HCT116 cells – cell-based, HCT116 PTEN knockout, dose response (AID 1047).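 Note: HCT116 colon tumor cells with PTEN knocked out; cells exposed to compound for 60 hours before readout; potency for loss of cell viability measured by luminescence.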 It is filed as functional.
Test [2] deals with T1, Streptokinase A (Streptococcus pyogenes serotype M1, UniProt P10520).
T1 sequence (P10520 whole entry): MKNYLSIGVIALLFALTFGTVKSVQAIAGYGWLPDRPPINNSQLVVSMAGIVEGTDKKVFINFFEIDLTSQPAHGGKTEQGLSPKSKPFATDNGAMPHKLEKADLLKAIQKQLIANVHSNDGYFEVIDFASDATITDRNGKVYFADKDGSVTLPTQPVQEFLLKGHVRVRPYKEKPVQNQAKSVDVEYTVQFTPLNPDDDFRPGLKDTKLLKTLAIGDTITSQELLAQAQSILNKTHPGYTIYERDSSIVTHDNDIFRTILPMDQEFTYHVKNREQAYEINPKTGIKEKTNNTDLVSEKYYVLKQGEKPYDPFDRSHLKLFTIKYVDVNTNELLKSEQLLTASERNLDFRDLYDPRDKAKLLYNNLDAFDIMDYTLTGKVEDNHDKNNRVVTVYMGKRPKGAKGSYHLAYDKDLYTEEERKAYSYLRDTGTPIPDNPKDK
As to the kind of experiment: viability-normalized secreted streptokinase activity reduction – plasminogen activation absorbance, OD405, dose response (AID 1914).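 Note: secreted streptokinase activity via plasminogen activation per viability signal from cell pellet.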 Format: functional, Streptococcus pyogenes M1 GAS.

Test [3] has as its target T2, Heat shock factor protein 1 (Mus musculus, UniProt P38532).
T2 sequence (P38532 whole entry): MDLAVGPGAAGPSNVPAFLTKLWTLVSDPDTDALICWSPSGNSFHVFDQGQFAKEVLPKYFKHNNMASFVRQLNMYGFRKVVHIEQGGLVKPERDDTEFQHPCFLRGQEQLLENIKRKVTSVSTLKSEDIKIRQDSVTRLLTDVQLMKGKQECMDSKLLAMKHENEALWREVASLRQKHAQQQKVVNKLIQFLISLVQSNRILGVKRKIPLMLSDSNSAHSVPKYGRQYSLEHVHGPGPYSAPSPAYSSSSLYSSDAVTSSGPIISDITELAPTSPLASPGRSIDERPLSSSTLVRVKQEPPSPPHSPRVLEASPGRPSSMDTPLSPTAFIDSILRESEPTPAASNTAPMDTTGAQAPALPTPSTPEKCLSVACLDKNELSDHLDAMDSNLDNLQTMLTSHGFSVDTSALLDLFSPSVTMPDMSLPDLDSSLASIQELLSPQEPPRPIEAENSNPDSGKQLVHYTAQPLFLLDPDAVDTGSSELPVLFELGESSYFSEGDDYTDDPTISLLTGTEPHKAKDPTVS
The test can be described thus: decrease of HSF1-responsive luciferase luminescence – cell-based, NIH3T3, dose retest, confirmation (AID 2382).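 Note: NIH3T3 fibroblasts with HSF1-driven luciferase reporter stressed by proteasome inhibitor MG132; luminescence from HSF1-driven luciferase expression after 8 hours of MG132 stress.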 Format: functional.

The subject of test [4] is INS1. The test can be described thus: INS-1E survival protection against cytokine death – cell-based, luminescence, retest, dose response (AID 449756).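 Note: cell death triggered by IL-1 beta plus TNF-alpha plus IFN-gamma mixture; protective hits raise ATP signal compared with cytokine alone wells.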 It is filed as functional. The following applies: Rattus norvegicus.
The subject of test [5] is Streptococcus sp. 'group A'. As to the kind of experiment: Streptococcus pyogenes SK(-)GAS viability under kanamycin – luminescence, BacTiterGlo, confirmation, counter-screen for streptokinase expression inhibitor project, dose response (AID 1900). It is filed as functional, organism-based.
Test [6] is described as follows: MIN6 cell viability loss – mouse insulinoma, cytotoxicity control, dose response (AID 2122).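 Note: confirmatory high-throughput counterscreen run to flag cytotoxic compounds; mouse MIN-6 beta cells carrying an insulin promoter eGFP reporter.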 It is filed as functional.
Test [7] concerns Streptococcus. The test can be described thus: GAS UMAA2166 growth inhibition – luminescence, BacTiterGlo, counter-screen for streptokinase expression inhibitor project, dose response (AID 1915).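 Note: potency for reduction of bacterial viability or growth.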 It is filed as functional, organism-based.
Test [8] concerns the target T3, Protein RecA (Mycobacterium tuberculosis, UniProt P9WHJ3).
T3 sequence (P9WHJ3 whole entry): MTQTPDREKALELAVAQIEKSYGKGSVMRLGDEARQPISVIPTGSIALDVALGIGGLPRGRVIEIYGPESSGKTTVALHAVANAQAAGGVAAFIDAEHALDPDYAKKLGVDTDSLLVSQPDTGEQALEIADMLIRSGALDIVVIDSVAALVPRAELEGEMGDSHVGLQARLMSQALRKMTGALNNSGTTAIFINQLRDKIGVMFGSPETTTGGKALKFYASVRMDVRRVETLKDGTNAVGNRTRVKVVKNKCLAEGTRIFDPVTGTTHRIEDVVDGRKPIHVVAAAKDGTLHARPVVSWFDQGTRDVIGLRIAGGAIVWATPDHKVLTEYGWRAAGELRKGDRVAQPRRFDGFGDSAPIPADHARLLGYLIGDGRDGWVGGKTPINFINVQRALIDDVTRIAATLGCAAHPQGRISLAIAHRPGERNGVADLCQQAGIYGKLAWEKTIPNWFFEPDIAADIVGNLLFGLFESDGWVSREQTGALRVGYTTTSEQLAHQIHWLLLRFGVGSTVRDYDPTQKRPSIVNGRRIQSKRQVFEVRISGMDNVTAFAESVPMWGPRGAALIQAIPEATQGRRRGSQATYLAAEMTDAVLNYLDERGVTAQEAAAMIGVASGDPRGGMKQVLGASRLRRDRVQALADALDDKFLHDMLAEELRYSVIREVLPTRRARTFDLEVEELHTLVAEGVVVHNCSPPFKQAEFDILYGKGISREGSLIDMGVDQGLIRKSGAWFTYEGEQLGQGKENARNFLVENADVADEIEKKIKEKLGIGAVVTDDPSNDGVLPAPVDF
The test can be described thus: Fluorescence Cell-Free Homogeneous Dose Retest to Identify Inhibitors of RecA-Intein Splicing Activity. [Related pubchem assays (depositor defined):AID2097, AID2223, AID489010, AID492950]. Format: functional.

Molecules are shown by their SMILES. Calls of active or inactive are those of the source. Cut-off read from the data, not from the text of the source, for most assays here: actives have a measured EC50 and inactives only a lower limit. Bounds are passed on as bounds.

For `COc1ccc(C(=O)c2c(C(F)(F)F)oc3c2C(=O)c2ccccc2C3=O)cc1`, the EC50 is 2.81 µM (active) in test [1]; > 150 µM (not active) in test [2]; 2.67 µM (active) in test [3]; 2.26 µM (active) in test [5]; 4.92 µM (active) in test [7]; 0.0825 µM (active) in test [8]. In addition, the AC50 in test [4] was 1.38 µM (active). Further, the half-inhibitory concentration (IC50) in test [6] is 2.39 µM (active).

For orientation: EC50 means the concentration giving half of the maximal effect. In general, AC50 refers to the concentration giving half of the maximal activity seen. As usually defined, the IC50 is the midpoint of a concentration-inhibition curve.
